Laboratory results: patent US6337327B1, “Pharmaceutical compositions comprising an aldose reductase inhibitor and an ace inhibitor” (Zeneca Limited, priority 1997, dated 2002)

System: rats rendered diabetic by streptozotocin (sciatic nerve branch to tibialis anterior muscle)
Test: Motor nerve conduction velocity in streptozotocin-diabetic rats
Type: in vivo, Male Sprague-Dawley rats
Settings: lisinopril 0.3 mg/kg/day; for Nerve conduction velocity (mean±SEM): diabetic rats, 6 weeks untreated diabetes then 2 weeks treatment in the drinking water, ZD5522 0.25 mg/kg/day, or both, nondiabetic control 64.4±0.5, untreated diabetic 50.9±0.5; for increase in conduction velocity: single-agent treatment for 2 weeks vs untreated diabetic rats, ZD5522 0.25 mg/kg/day
Protocol: Male Sprague-Dawley rats, 19 weeks old at the start of the study, were divided into non-diabetic animals (normal control group) and animals rendered diabetic by intraperitoneal administration of streptozotocin, (40-45 mg/kg, freshly dissolved in sterile saline). Diabetes was verified 24 hours later by estimating hyperglycemia and glucosuria (Visidex II and Diastix; Ames, Slough, UK). Diabetic rats were tested weekly and weighed daily. […] Samples were taken from the tail vein or carotid artery after final experiments for plasma glucose determination (GOD-Perid method; Boehringer Mannheim, Mannheim, Germany). After 6 weeks of untreated diabetes, groups of rats were treated for a further 2 weeks with lisinopril (0.3 mg/kg/day) or the aldose reductase inhibitor, ZD5522 (0.25 mg/kg/day) or a combination of the two drugs, dissolved in the drinking water.
At the end of the treatment period, rats were anesthetized with thiobutabarbitone by intraperitoneal injection (50-100 mg/kg). The trachea was cannulated for artificial ventilation and a cartoid cannula was used to monitor mean systemic blood pressure. Motor nerve conduction velocity was measured (as previously described by Cameron et al, Diabetologia, 1993, Vol. 36, pages 299-304) between sciatic notch and knee in the nerve branch to tibialis anterior muscle, which is representative of the whole sciatic nerve in terms of susceptibility to diabetes and treatment effects.

| Structure (SMILES) | Nerve conduction velocity (mean±SEM) [m/s] | increase in conduction velocity [%] |
| --- | --- | --- |
| NCCCC[C@H](N[C@@H](CCc1ccccc1)C(=O)O)C(=O)N1CCC[C@H]1C(=O)O [lisinopril] | 53.9±0.6 | ~20 |
| Cc1ccccc1CC(=O)Nc1cc(C)c(S(=O)(=O)C[N+](=O)[O-])c(C)c1 [ZD5522, 3′,5′-dimethyl-4′-nitromethylsulfonyl-2-(2-tolyl)acetanilide] | 53.7±0.3 | ~20 |
